Laboratory results as given in PubChem BioAssay (NCI).
Values joined by “and” are separate entries in the source; they are usually repeats but may differ in a detail not shown here. Identical values can stand only once.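 Values below derive from 48-hour exposures of cells grown in 96-well plates, with endpoints linearly interpolated between the two concentrations bracketing the appropriate inhibition level. GI50 is the concentration that inhibits growth by half. At the TGI there is no net growth.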

How the values were obtained:
Experiment in all cases: NCI tumour cell line growth inhibition, 48 h
P388 leukemia = tested on: P388 leukemia
XF 498 CNS = tested on: XF 498 CNS
KM20L2 colon = tested on: KM20L2 colon
DMS 273 small cell lung = tested on: DMS 273 small cell lung
HOP-18 NSCLC = tested on: HOP-18 NSCLC
LXFL 529 NSCLC = tested on: LXFL 529 NSCLC
MDA-N = tested on: MDA-N
SNB-78 CNS = tested on: SNB-78 CNS
RXF-631 renal = tested on: RXF-631 renal
DLD-1 colon = tested on: DLD-1 colon

SMILES	TGI (P388 leukemia) [µM]	TGI (XF 498 CNS)	TGI (KM20L2 colon)	GI50 (DMS 273 small cell lung) [µM]	TGI (DMS 273 small cell lung)	TGI (HOP-18 NSCLC)	TGI (LXFL 529 NSCLC) [µM]	GI50 (MDA-N) [µM]	TGI (MDA-N)	TGI (SNB-78 CNS)	TGI (RXF-631 renal) [µM]	GI50 (KM20L2 colon) [µM]	GI50 (HOP-18 NSCLC)	TGI (DLD-1 colon) [µM]
COc1cc([C@@H]2c3cc4c(cc3[C@@H](OC3OC5COC(C)OC5C(O)C3O)[C@H]3COC(=O)[C@H]23)OCO4)cc(OC)c1O (stereo partly specified)	9.88	73.6 µM and 71.1 µM	133 µM and 225 µM	58.8	32.9 µM	121 µM and 232 µM	218	18.6	4.36 µM	154 µM and 604 µM	–	–	–	–
COc1cc2c(c3oc4c(O)cccc4c(=O)c13)CC(C(C)(O)CCl)O2 (stereo unspecified)	–	–	–	–	–	–	–	–	2.45 µM	–	–	–	–	–
CN(C)NC(=O)NC12CC3CC(CC(C3)C1)C2	–	> 100 µM	> 100 µM	–	> 100 µM	–	> 100	–	–	> 100 µM	–	–	–	–
CC(=O)O[C@H]1CSC[C@@H](OC(C)=O)C1[N+](=O)[O-] (stereo partly specified)	–	–	> 100 µM	–	> 100 µM	> 100 µM	34	–	–	> 100 µM	> 100	–	–	–
C=C1C(C)C2C(Cc3ccccc3)NC(=O)C23C(OC(C)=O)C=CC(C)(O)C(=O)C(C)C/C=C/C3C1O (stereo unspecified)	51.7	28.5 µM	99.2 µM and > 500 µM	0.05	73.9 µM and > 500 µM	1.09 µM and 0.117 µM	96.4	1.75	21.4 µM and > 162 µM	1.55 µM	–	0.275	0.0404 µM and 0.05 µM	–
O=C1c2ccccc2C(=O)c2c1ccc1c3ccccc3n(-c3ccccc3)c21	–	–	53.5 µM	–	34.4 µM	27.6 µM	30.7	–	> 51.4 µM	49.3 µM	20.7	–	–	41.6
CCOC(=O)C(Oc1ccc(OC)c2c1C(=O)CCC2)c1ccccc1 (stereo unspecified)	–	> 100 µM	> 100 µM	–	> 100 µM	–	> 100	–	–	> 100 µM	–	–	–	> 100
CCc1ccc([OH2+])c(C(=O)[O-])c1.CCc1ccc([OH2+])c(C(=O)[O-])c1.CCc1ccc([OH2+])c(C(=O)[O-])c1.CCc1ccc([OH2+])c(C(=O)[O-])c1.[Cu+2].[Cu+2]	–	–	–	–	–	–	–	> 71.1	> 100 µM	–	–	–	–	–
CC1=C(C(=S)Nc2ccc(Cl)c(C(=O)OC(C)C)c2)SCCO1	–	–	–	–	–	–	–	–	39.2 µM	–	–	–	–	–
C=C1C(=O)C23C(O)CC4C(C)(C)CCC(O)C4(C)C2CC(OC(C)=O)C1[C@H]3O (stereo partly specified)	–	3.33 µM	11.1 µM	–	3.79 µM	3.82 µM	2.41	–	20.6 µM	–	15.7	–	–	4.65
CCN(CC)c1ccc(N=Nc2ccc(-c3nc4cccnc4s3)cc2)cc1	–	72.1 µM	> 100 µM	–	–	–	> 100	–	–	> 100 µM	–	–	–	> 100
CN(N=O)c1ccc(/C=C/c2ccnc3ccccc23)cc1	–	–	–	–	–	–	–	–	> 100 µM	–	–	–	–	–
NN=C1/C(=C\c2ccccc2)CCC/C1=C/c1ccccc1	–	–	> 100 µM	–	> 100 µM	> 100 µM	> 100	–	–	> 100 µM	–	–	–	> 100
CN(C(=O)C12C3C4C1C1C2C3C41C#N)C(C)(C)C (stereo unspecified)	–	–	> 100 µM	–	> 100 µM	–	> 100	–	–	> 100 µM	> 100	–	–	> 100
O=C1CCNC/C1=C\c1ccccc1	–	74.7 µM	28.4 µM	–	69.1 µM	–	34.5	–	–	> 100 µM	> 100	–	–	48.3
NP1(Oc2ccc(F)cc2)=NP(N)(Oc2ccc(F)cc2)=NP(Oc2ccc(F)cc2)(Oc2ccc(F)cc2)=N1 (stereo unspecified)	–	–	–	–	–	–	–	–	19 µM	–	–	–	–	–
Nc1ncc(CN2CCCC2)c(-c2ccccc2O)n1	–	> 750 µM	> 750 µM	–	> 750 µM	> 750 µM	> 750	–	–	–	–	–	–	> 750
CC1=Nc2ccccc2S/C1=C1/C=NC(=NC#N)N=C1C(=O)Nc1cccc(Cl)c1	–	–	> 100 µM	–	> 100 µM	> 100 µM	> 100	–	–	> 100 µM	–	–	–	> 100
O=C(CC1(O)C(=O)Nc2ccccc21)c1cccc(O)c1 (stereo unspecified)	–	> 100 µM	> 100 µM	–	> 100 µM	–	> 100	–	–	> 100 µM	> 100	–	–	> 100
N#C/C(=C/c1ccc([N+](=O)[O-])o1)c1ccccc1	–	–	> 100 µM	–	> 100 µM	> 100 µM	> 100	–	–	> 100 µM	–	–	–	> 100
O=C(O)CN(CCN(CC(=O)O)CC(=O)O)CC(=O)O.[Cu+2].[Na+]	–	–	–	–	–	–	–	> 100	> 100 µM	–	–	–	–	–
CC1=C(\C=C/C(C)=C/C=C/C(C)=C/C=C/C=C(C)\C=C\C=C(C)/C=C/C2=C(C)CCCC2(C)C)C(C)(C)CCC1	–	–	–	–	–	–	–	–	> 100 µM	–	–	–	–	–
CCn1c(=O)nc2n(-c3ccc(SC)cc3)c3ccccc3nc-2c1=O	–	–	> 100 µM	–	> 100 µM	> 100 µM	> 100	–	–	> 100 µM	> 100	–	–	> 100
COc1cccc(NC(=O)/C(CS(=O)(=O)CCC(C(C)=O)C(C)=O)=N\NC(C)(C)C)c1	–	–	> 100 µM	–	> 100 µM	> 100 µM	> 100	–	–	> 100 µM	–	–	–	> 100
